Like-named read-outs stand apart in the source and are kept apart here.
Target: T1, human GC-A (Homo sapiens, UniProt P16066)
T1 construct: expressed in transfected cells; host or cells: CHO cells
T1 sequence (P16066 33-1061): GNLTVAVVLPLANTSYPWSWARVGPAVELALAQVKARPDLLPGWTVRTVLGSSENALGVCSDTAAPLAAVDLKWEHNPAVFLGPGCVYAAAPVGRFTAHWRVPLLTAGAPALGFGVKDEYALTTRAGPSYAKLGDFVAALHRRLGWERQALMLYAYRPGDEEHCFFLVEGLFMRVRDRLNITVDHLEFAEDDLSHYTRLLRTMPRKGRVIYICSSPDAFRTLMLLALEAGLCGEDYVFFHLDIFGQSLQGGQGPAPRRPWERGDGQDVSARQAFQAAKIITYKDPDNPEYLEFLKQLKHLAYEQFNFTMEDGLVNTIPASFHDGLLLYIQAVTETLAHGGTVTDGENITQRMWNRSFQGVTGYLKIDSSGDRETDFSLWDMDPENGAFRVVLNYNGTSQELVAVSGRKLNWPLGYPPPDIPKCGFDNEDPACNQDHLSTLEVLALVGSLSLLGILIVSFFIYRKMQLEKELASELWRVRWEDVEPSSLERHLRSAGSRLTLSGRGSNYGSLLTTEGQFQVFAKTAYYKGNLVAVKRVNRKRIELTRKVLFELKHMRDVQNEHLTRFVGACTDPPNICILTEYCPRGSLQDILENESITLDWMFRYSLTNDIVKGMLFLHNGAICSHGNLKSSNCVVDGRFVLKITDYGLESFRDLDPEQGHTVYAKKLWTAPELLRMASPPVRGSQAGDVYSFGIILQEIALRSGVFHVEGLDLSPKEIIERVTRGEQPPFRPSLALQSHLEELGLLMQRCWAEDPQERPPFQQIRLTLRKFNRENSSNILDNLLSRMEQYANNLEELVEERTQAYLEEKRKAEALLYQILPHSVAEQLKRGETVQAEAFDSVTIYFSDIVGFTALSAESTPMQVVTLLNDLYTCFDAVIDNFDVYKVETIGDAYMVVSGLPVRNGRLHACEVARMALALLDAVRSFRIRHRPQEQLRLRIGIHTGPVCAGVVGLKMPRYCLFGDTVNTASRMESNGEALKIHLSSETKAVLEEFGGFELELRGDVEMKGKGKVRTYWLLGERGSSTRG
Assay: cGMP elevating activity in CHO/human GC-A cells (Test Example 1)
Format: cell-based
Details: for Emax: maximum T/C in range 0.01-100 nM, solvent only = 0, 1 nM ANP = 1
Outline: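 CHO cells stably expressing human GC-A, pre-incubated 10 min at room temperature in 1.6 mM IBMX/KRB, then exposed to test peptide 15 min in CO2 incubator. Lysate cGMP measured by HTRF. Activity (T/C) scaled so solvent-only = 0 and 1 nM ANP = 1.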

[1] = CHO/human GC-A cells, concentration at T/C=0.5, 15 minutes incubation, read-out: EC50

Molecule	EC50	EC50 [1]	Emax
CC[C@H](C)[C@@H]1NC(=O)[C@H](CCCNC(=N)N)NC(=O)[C@H](CC(=O)O)NC(=O)[C@H](CCSC)NC(=O)[C@H](CCCNC(=N)N)NC(=O)CNC(=O)CNC(=O)[C@H](Cc2ccccc2)NC(=O)[C@@H](NC(=O)[C@H](CO)NC(=O)[C@H](CO)NC(=O)[C@H](CCCNC(=N)N)NC(=O)[C@H](CCCNC(=N)N)NC(=O)[C@H](CC(C)C)NC(=O)[C@H](CO)NC(=O)CCOCCOCCOCCOCCNC(=O)CO[C@@H]2O[C@H](CO)[C@@H](O[C@@H]3O[C@H](CO)[C@@H](O[C@@H]4O[C@H](CO[C@H]5O[C@H](CO)[C@@H](O)[C@H](O)[C@@H]5O[C@@H]5O[C@H](CO)[C@@H](O[C@@H]6O[C@H](CO[C@]7(C(=O)O)C[C@H](O)[C@@H](NC(C)=O)[C@H]([C@H](O)[C@H](O)CO)O7)[C@H](O)[C@H](O)[C@H]6O)[C@H](O)[C@H]5NC(C)=O)[C@@H](O)[C@H](O[C@H]5O[C@H](CO)[C@@H](O)[C@H](O)[C@@H]5O[C@@H]5O[C@H](CO)[C@@H](O[C@@H]6O[C@H](CO[C@]7(C(=O)O)C[C@H](O)[C@@H](NC(C)=O)[C@H]([C@H](O)[C@H](O)CO)O7)[C@H](O)[C@H](O)[C@H]6O)[C@H](O)[C@H]5NC(C)=O)[C@@H]4O)[C@H](O)[C@H]3NC(C)=O)[C@H](O)[C@H]2NC(C)=O)CSSC[C@@H](C(=O)N[C@@H](CC(N)=O)C(=O)N[C@@H](CO)C(=O)N[C@@H](Cc2ccccc2)C(=O)N[C@@H](CCCNC(=N)N)C(=O)N[C@@H](Cc2ccc(O)cc2)C(=O)NCCOCCOCCOCCOCCC(=O)NCCO[C@@H]2O[C@H](CO)[C@@H](O[C@@H]3O[C@H](CO)[C@@H](O[C@@H]4O[C@H](CO[C@H]5O[C@H](CO)[C@@H](O)[C@H](O)[C@@H]5O[C@@H]5O[C@H](CO)[C@@H](O[C@@H]6O[C@H](CO[C@]7(C(=O)O)C[C@H](O)[C@@H](NC(C)=O)[C@H]([C@H](O)[C@H](O)CO)O7)[C@H](O)[C@H](O)[C@H]6O)[C@H](O)[C@H]5NC(C)=O)[C@@H](O)[C@H](O[C@H]5O[C@H](CO)[C@@H](O)[C@H](O)[C@@H]5O[C@@H]5O[C@H](CO)[C@@H](O[C@@H]6O[C@H](CO[C@]7(C(=O)O)C[C@H](O)[C@@H](NC(C)=O)[C@H]([C@H](O)[C@H](O)CO)O7)[C@H](O)[C@H](O)[C@H]6O)[C@H](O)[C@H]5NC(C)=O)[C@@H]4O)[C@H](O)[C@H]3NC(C)=O)[C@H](O)[C@H]2NC(C)=O)NC(=O)CNC(=O)[C@H](CC(C)C)NC(=O)CNC(=O)[C@H](CO)NC(=O)[C@H](CCC(N)=O)NC(=O)[C@H](C)NC(=O)CNC1=O [Compound 2-24, SG-PEG(3)-hANP(1-28)-PEG(3)-SG]	0.54 nM		
CC[C@H](C)[C@@H]1NC(=O)[C@H](CCCNC(=N)N)NC(=O)[C@H](CC(=O)O)NC(=O)[C@H](CCSC)NC(=O)[C@H](CCCNC(=N)N)NC(=O)CNC(=O)CNC(=O)[C@H](Cc2ccccc2)NC(=O)[C@@H](NC(=O)[C@H](CO)NC(=O)[C@H](CO)NC(=O)[C@H](CCCNC(=N)N)NC(=O)[C@H](CCCNC(=N)N)NC(=O)[C@H](CC(C)C)NC(=O)[C@H](CO)NC(=O)CNC(=O)CO[C@@H]2O[C@H](CO)[C@@H](O[C@@H]3O[C@H](CO)[C@@H](O[C@@H]4O[C@H](CO[C@H]5O[C@H](CO)[C@@H](O)[C@H](O)[C@@H]5O[C@@H]5O[C@H](CO)[C@@H](O[C@@H]6O[C@H](CO[C@]7(C(=O)O)C[C@H](O)[C@@H](NC(C)=O)[C@H]([C@H](O)[C@H](O)CO)O7)[C@H](O)[C@H](O)[C@H]6O)[C@H](O)[C@H]5NC(C)=O)[C@@H](O)[C@H](O[C@H]5O[C@H](CO)[C@@H](O)[C@H](O)[C@@H]5O[C@@H]5O[C@H](CO)[C@@H](O[C@@H]6O[C@H](CO[C@]7(C(=O)O)C[C@H](O)[C@@H](NC(C)=O)[C@H]([C@H](O)[C@H](O)CO)O7)[C@H](O)[C@H](O)[C@H]6O)[C@H](O)[C@H]5NC(C)=O)[C@@H]4O)[C@H](O)[C@H]3NC(C)=O)[C@H](O)[C@H]2O)CSSC[C@@H](C(=O)N[C@@H](CC(N)=O)C(=O)N[C@@H](CO)C(=O)N[C@@H](Cc2ccccc2)C(=O)N[C@@H](CCCNC(=N)N)C(=O)N[C@@H](Cc2ccc(O)cc2)C(=O)O)NC(=O)CNC(=O)[C@H](CC(C)C)NC(=O)CNC(=O)[C@H](CO)NC(=O)[C@H](CCC(N)=O)NC(=O)[C@H](C)NC(=O)CNC1=O [Compound 2-40, SG(Glc)-Gly-A-hANP(1-28)]	0.05 nM		
CC[C@H](C)[C@@H]1NC(=O)[C@H](CCCNC(=N)N)NC(=O)[C@H](CC(=O)O)NC(=O)[C@H](CCSC)NC(=O)[C@H](CCCNC(=N)N)NC(=O)CNC(=O)CNC(=O)[C@H](Cc2ccccc2)NC(=O)[C@@H](NC(=O)[C@H](CO)NC(=O)[C@H](CO)NC(=O)[C@H](CCCNC(=N)N)NC(=O)[C@H](CCCNC(=N)N)NC(=O)[C@H](CC(C)C)NC(=O)[C@@H](N)CC(=O)N[C@@H]2O[C@H](CO)[C@@H](O[C@@H]3O[C@H](CO)[C@@H](O[C@@H]4O[C@H](CO[C@H]5O[C@H](CO)[C@@H](O)[C@H](O)[C@@H]5O[C@@H]5O[C@H](CO)[C@@H](O[C@@H]6O[C@H](CO[C@]7(C(=O)O)C[C@H](O)[C@@H](NC(C)=O)[C@H]([C@H](O)[C@H](O)CO)O7)[C@H](O)[C@H](O)[C@H]6O)[C@H](O)[C@H]5NC(C)=O)[C@@H](O)[C@H](O[C@H]5O[C@H](CO)[C@@H](O)[C@H](O)[C@@H]5O[C@@H]5O[C@H](CO)[C@@H](O[C@@H]6O[C@H](CO[C@]7(C(=O)O)C[C@H](O)[C@@H](NC(C)=O)[C@H]([C@H](O)[C@H](O)CO)O7)[C@H](O)[C@H](O)[C@H]6O)[C@H](O)[C@H]5NC(C)=O)[C@@H]4O)[C@H](O)[C@H]3NC(C)=O)[C@H](O)[C@H]2NC(C)=O)CSSC[C@@H](C(=O)N[C@@H](CC(N)=O)C(=O)N[C@@H](CO)C(=O)N[C@@H](Cc2ccccc2)C(=O)N[C@@H](CCCNC(=N)N)C(=O)N[C@@H](Cc2ccc(O)cc2)C(=O)O)NC(=O)CNC(=O)[C@H](CC(C)C)NC(=O)CNC(=O)[C@H](CO)NC(=O)[C@H](CCC(N)=O)NC(=O)[C@H](C)NC(=O)CNC1=O [Compound 2-4, (SG-)Asn-hANP(2-28)]	0.08 nM		
CC[C@H](C)[C@@H]1NC(=O)[C@H](CCCNC(=N)N)NC(=O)[C@H](CC(=O)O)NC(=O)[C@H](CCSC)NC(=O)[C@H](CCCNC(=N)N)NC(=O)CNC(=O)CNC(=O)[C@H](Cc2ccccc2)NC(=O)[C@@H](NC(=O)[C@H](CO)NC(=O)[C@H](CO)NC(=O)[C@H](CCCNC(=N)N)NC(=O)[C@H](CCCNC(=N)N)NC(=O)[C@H](CC(C)C)NC(=O)[C@H](CO)NC(=O)CCOCCOCCOCCOCCNC(=O)[C@H](CC(=O)N[C@@H]2O[C@H](CO)[C@@H](O[C@@H]3O[C@H](CO)[C@@H](O[C@@H]4O[C@H](CO[C@H]5O[C@H](CO)[C@@H](O)[C@H](O)[C@@H]5O[C@@H]5O[C@H](CO)[C@@H](O[C@@H]6O[C@H](CO)[C@H](O)[C@H](O)[C@H]6O)[C@H](O)[C@H]5NC(C)=O)[C@@H](O)[C@H](O[C@H]5O[C@H](CO)[C@@H](O)[C@H](O)[C@@H]5O[C@@H]5O[C@H](CO)[C@@H](O[C@@H]6O[C@H](CO)[C@H](O)[C@H](O)[C@H]6O)[C@H](O)[C@H]5NC(C)=O)[C@@H]4O)[C@H](O)[C@H]3NC(C)=O)[C@H](O)[C@H]2NC(C)=O)NC(=O)CO[C@@H]2O[C@H](CO)[C@@H](O[C@@H]3O[C@H](CO)[C@@H](O[C@@H]4O[C@H](CO[C@H]5O[C@H](CO)[C@@H](O)[C@H](O)[C@@H]5O[C@@H]5O[C@H](CO)[C@@H](O[C@@H]6O[C@H](CO)[C@H](O)[C@H](O)[C@H]6O)[C@H](O)[C@H]5NC(C)=O)[C@@H](O)[C@H](O[C@H]5O[C@H](CO)[C@@H](O)[C@H](O)[C@@H]5O[C@@H]5O[C@H](CO)[C@@H](O[C@@H]6O[C@H](CO)[C@H](O)[C@H](O)[C@H]6O)[C@H](O)[C@H]5NC(C)=O)[C@@H]4O)[C@H](O)[C@H]3NC(C)=O)[C@H](O)[C@H]2NC(C)=O)CSSC[C@@H](C(=O)N[C@@H](CC(N)=O)C(=O)N[C@@H](CO)C(=O)N[C@@H](Cc2ccccc2)C(=O)N[C@@H](CCCNC(=N)N)C(=O)N[C@@H](Cc2ccc(O)cc2)C(=O)O)NC(=O)CNC(=O)[C@H](CC(C)C)NC(=O)CNC(=O)[C@H](CO)NC(=O)[C@H](CCC(N)=O)NC(=O)[C@H](C)NC(=O)CNC1=O [Compound 2-21, AG(9)-(AG(9)-)Asn-PEG(3)-hANP(1-28)]	0.097 nM		
SG2-(SG2-)Lys-[SG2-(SG2-)-Lys-]Lys-PEG(3)-hANP(1-28) [Compound 2-20]		64 nM	0.59
[(SG2-)Cys-Gly]5-hANP(1-28) [Compound 2-18]		48 nM	0.63

From patent publication US10947289B2, “Glyco-modified atrial natriuretic peptide” (priority 2013, dated 2021)
